Experimental data: patent US20160058753A1, “Nalmefene for Treatment of Patients with Mood Disorder” (H. LUNDBECK A/S, priority 2013, published 2016)

Legend:
Mice (NMRI) [1] = experiment: Marble burying test in mouse; assay type: in vivo; settings: for Number of marbles covered by sawdust, Mean ± SEM: 30 minute test, 25 marbles
Text: The method, which detects anxiolytic/tranquillizing activity, follows that described by Broekkamp et al (Eur. J. Pharmacol., 126, 223-229, 1986). Mice exposed to novel objects (marbles) will bury them in the sawdust floor covering. Anxiolytics decrease the number of marbles buried at non-sedative doses.
Mice (NMRI) were individually placed in transparent plastic cages (33×21×18 cm) with 5 cm of sawdust on the floor and 25 marbles grouped in the centre of the cage. The cage was covered with an inverted plastic cage. Each test cage, together with the marbles, was impregnated with mouse odor before-hand by leaving 10 mice in the cage for 15 minutes. These mice then played no further role in the experiment.
Nalmefene was tested in the marble burying model as the sole active compound. The number of marbles covered by sawdust (⅔ or more) was counted at the end of a 30 minute test. 12 mice were studied per group. The test was performed blind. Nalmefene was evaluated at 3 doses (0.01, 0.1 and 1 mg/kg), administered s.c. 30 minutes before the test, and compared with a vehicle control group. Clobazam (8 mg/kg s.c.), administered under the same experimental conditions, was used as reference substance. The experiment therefore included 8 groups.
Data with Nalmefene were analysed by comparing treated groups with vehicle control using Kruskall-Wallis test followed by Mann-Whitney U tests. Data with the reference substance were analysed using Mann-Whitney U tests. Due to the number of groups, the study was conducted over 2 separate sub-experiments, each sub-experiment including 6 mice per group.

[2] = tested on: patients with alcohol dependence; experiment: Study 12013A: clinical efficacy on the reduction of alcohol consumption (HDD, TAC); assay type: in vivo, human; settings: for HDD / TAC: patients with a mood disorder at baseline according to MINI assessment
Text: (§1) The diagnosis of alcohol dependence was based on the DSM-IV-TR criteria. For this purpose, the investigator interviewed the patient in a structured way by using the Mini International Neuropsychiatric Interview (MINI) standardized interview (Lecrubier et al. The Mini International Neuropsychiatric Interview (M.I.N.I.). A short diagnostic structured interview: Reliability and validity according to the CIDI. European Psychiat. (1997), 12: 224-31). The M.I.N.I. is designed as a brief structured interview for the major Axis I psychiatric disorders in DSM-IV. Its use permits a standardised assessment of the diagnostic criteria. The M.I.N.I. interview was used at the screening visit. Clinicians used it after a training session. The M.I.N.I. approach was used to select patients with a mood disorder at baseline in Example 3.
(§2) Another approach to identify patients with a mood disorder is by defining mood disorder at baseline as any ongoing medical history coded by the Medical Dictionary for Regulatory Activities (MedDRA) Preferred Term as ‘Affective Disorder’, ‘Bipolar Disorder’, ‘Depressed Mood’, ‘Depression’, ‘Dysthymic Disorder’, ‘Hypomania’, ‘Major Depression’, ‘Mood Disorder Due To A General Medical Condition’ and/or ‘Seasonal Affective Disorder’. In examples 1 and 2 below patients classified with a mood disorder at baseline was selected based on said MedDRA terms.
The efficacy of nalmefene on the reduction of alcohol consumption in patients with alcohol dependence (DSM-IV) was evaluated in a multi-national, multi-site, randomised, double blind, two parallel group, placebo controlled 1 year safety study (Study 12013A). The efficacy was evaluated over 24 weeks of treatment. The study included outpatients, aged ≧18 years, with a primary diagnosis of alcohol dependence. […] Patients with psychiatric co-morbidity (that is, patients who used stable doses of antipsychotics and/or certain antidepressants) were also included unless the treatment of the psychiatric comorbidity had to take priority over treatment of the drinking problem, or was likely to interfere with study treatment or impairs treatment compliance.
The study included 639 patients, 482 of whom were treated with nalmefene 18 mg in an as-needed dosing regimen. A motivational and adherence enhancing intervention was administered to all the patients to support the patients in changing their behavior and to enhance adherence to treatment.
The efficacy of nalmefene on the reduction of alcohol consumption was measured using two co-primary endpoints: the change from baseline to Month 6 in the monthly number of heavy drinking days (HDDs) and the change from baseline to Month 6 in the average daily total alcohol consumption (TAC). A HDD was defined as a day with a consumption ≧60 g alcohol for men and ≧40 g for women.
(§3) Table 10 below outlines drinking variables and POMS TMD score patients from the 12013A study with a mood disorder at baseline who were classified based on MINI standardized interviews.

κ receptor = κ receptor (Homo sapiens, UniProt P41145); settings: in vitro; cited from earlier work
μ receptor = μ receptor (Homo sapiens, UniProt P35372); settings: in vitro; cited from earlier work
Rats (Wistar) = experiment: Forced swim test in rats; assay type: in vivo, rat; settings: 0.01, 0.1 and 1 mg/kg s.c. 30 minutes before the test, versus vehicle
Procedure: The method, which detects antidepressant activity, follows that described by Porsolt et al (Eur. J. Pharmacol., 47, 379-391, 1978). Rats forced to swim in a situation from which they cannot escape eventually become immobile. Antidepressants decrease the duration of immobility.
Nalmefene was tested as the sole active compound. Rats (Wistar) were individually placed in a cylinder (height=40 cm; diameter=20 cm) containing 13 cm water (25° C.) for 15 minutes on the first day of the experiment (Session 1) and were then placed back in the water 24 hours later for a 5 minute test (Session 2). The duration of immobility during the 5 minute test was measured. 6 rats were studied per group. The test was performed blind. Nalmefene was evaluated at 3 doses (0.01, 0.1 and 1 mg/kg), administered s.c. 30 minutes before the test, and compared with a vehicle control group.
Data with the test substance were analysed by comparing treated groups with vehicle control using one-way ANOVA followed by post-hoc Dunnett's tests. Data with the reference substance were analysed using unpaired Student's t tests.

δ receptor = δ receptor (Homo sapiens, UniProt P41143); settings: in vitro; cited from earlier work
[3] = tested on: patients with alcohol dependence; experiment: Study 12013A: clinical efficacy measured by POMS score; assay type: in vivo, human; settings: for POMS TMD score: patients with a mood disorder at baseline according to MINI assessment
Text: The term “POMS” is an abbreviation of “profile of mood states” and refers to a selfreport inventory scale developed to assess the effect of e.g. new medication on mood states and mood changes. The scale measures six domains: Tension-Anxiety, Depression-Rejection, Anger-Hostility, Vigour-Activity, Fatigue-Inertia, and Confusion-Bewilderment. A total mood disturbance (TMD) score can be calculated. In general, a lower POMS score indicates a better mood state than a higher score except for vigour-activity, for which a higher POMS score indicates a better mood state. The scale has been described e.g. by McNair et al., Profile of mood states. San Diego, Calif.: Educational and Industrial Testing Service and by Nyenhios and Yamamoto, J. Clin. Psychology, (1999), Vol. 55(1): 79-86.
as §1, §2
Assessment of POMs scores in Study 12013A was used to evaluate the effect of nalmefene on mood states and mood changes throughout the study. The change in POMS scores from baseline are illustrated in FIGS. 3-9.
In general, a lower POMS score indicates a better mood state than a higher score except for vigour, illustrated in FIGS. 7a and 7b, wherein a higher POMS score indicates a better mood state.
as §3

Mice (NMRI) [4] = experiment: Forced swim test in mouse; assay type: in vivo; settings: for Duration of immobility, Mean ± SEM: last 4 of 6 minutes
Procedure: The method, which detects antidepressant activity, follows that described by Porsolt et al (Arch. Int. Pharmacodyn., 229, 327-336, 1977). Mice forced to swim in a situation from which they cannot escape eventually become immobile. Antidepressants decrease the duration of immobility.
Nalmefene was tested as the sole active compound. Mice (NMRI) were individually placed in a cylinder (height=24 em; diameter=13 em) containing 10 cm water (22° C.) from which they cannot escape. The mice were placed in the water for 6 minutes and the duration of immobility during the last 4 minutes was measured. The latency to the first bout of immobility was also recorded starting from the beginning of the test.
10 mice were studied per group. The test was performed blind. Each test substance was evaluated at 3 doses (0.1, 1 and 10 mg/kg), administered s.c. 30 minutes before the test, and compared with a vehicle control group.
Imipramine (32 mg/kg s.c.), administered under the same experimental conditions, was used as reference substance. The experiment therefore included 8 groups.
Data with the test substance were analysed by comparing treated groups with vehicle control using one-way ANOVA followed by post-hoc Dunnett's tests. Data with the reference substance were analysed using unpaired Student's t tests. Due to the number of groups, the study was conducted over 2 separate sub-experiments, each subexperiment including 5 mice per group.

[5] = tested on: patients with comorbid bipolar disorders; settings: literature; cited from earlier work
[6] = 0.01 mg/kg s.c. 30 minutes before the test
[7] = 0.1 mg/kg s.c. 30 minutes before the test
[8] = 1 mg/kg s.c. 30 minutes before the test
[9] = 1 year, nalmefene 18 mg as-needed
[10] = 10 mg/kg s.c. 30 minutes before the test

μ receptor, sequence (P35372 whole entry): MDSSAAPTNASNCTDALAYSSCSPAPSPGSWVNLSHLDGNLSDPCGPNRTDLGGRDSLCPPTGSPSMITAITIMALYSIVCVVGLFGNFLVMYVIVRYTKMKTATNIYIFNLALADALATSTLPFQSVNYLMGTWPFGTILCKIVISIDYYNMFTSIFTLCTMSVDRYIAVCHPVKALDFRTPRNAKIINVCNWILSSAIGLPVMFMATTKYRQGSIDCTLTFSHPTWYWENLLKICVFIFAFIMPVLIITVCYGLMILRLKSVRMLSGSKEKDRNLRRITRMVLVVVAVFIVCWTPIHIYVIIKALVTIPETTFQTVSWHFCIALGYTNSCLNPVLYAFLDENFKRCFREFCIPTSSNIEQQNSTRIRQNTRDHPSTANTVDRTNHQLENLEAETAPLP
δ receptor, sequence (P41143 whole entry): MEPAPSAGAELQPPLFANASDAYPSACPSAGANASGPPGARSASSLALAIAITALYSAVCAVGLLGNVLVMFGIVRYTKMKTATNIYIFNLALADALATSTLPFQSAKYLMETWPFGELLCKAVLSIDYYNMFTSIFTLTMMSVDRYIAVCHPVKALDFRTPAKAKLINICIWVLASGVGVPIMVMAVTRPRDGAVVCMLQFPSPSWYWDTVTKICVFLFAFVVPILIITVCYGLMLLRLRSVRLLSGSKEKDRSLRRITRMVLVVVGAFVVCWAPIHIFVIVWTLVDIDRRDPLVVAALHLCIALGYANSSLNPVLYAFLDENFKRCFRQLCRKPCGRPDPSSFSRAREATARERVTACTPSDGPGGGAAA
κ receptor, sequence (P41145 whole entry): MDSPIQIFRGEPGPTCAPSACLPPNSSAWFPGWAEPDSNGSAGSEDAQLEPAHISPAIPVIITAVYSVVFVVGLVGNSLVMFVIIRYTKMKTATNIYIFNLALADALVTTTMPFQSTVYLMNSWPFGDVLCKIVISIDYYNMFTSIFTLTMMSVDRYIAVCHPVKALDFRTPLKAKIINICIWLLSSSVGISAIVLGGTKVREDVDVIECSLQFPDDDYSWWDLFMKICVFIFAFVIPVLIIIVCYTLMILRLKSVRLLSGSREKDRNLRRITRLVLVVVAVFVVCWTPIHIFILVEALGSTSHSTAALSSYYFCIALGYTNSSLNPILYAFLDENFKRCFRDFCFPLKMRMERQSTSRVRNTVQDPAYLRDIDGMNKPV

With C=C1CC[C@@]2(O)[C@H]3Cc4ccc(O)c5c4[C@@]2(CCN3CC2CC2)[C@H]1O5 [Nalmefene, 17-(cyclopropylmethyl)-4,5-alpha-epoxy-6-methylenemorphinan-3,14-diol] the “Number of marbles covered by sawdust, % compared with vehicle” value (“Number of marbles covered by sawdust, %” for short) (Mice (NMRI) [1]; [6]) was −5%, the “Number of marbles covered by sawdust, Mean ± SEM” value (“Number … Mean ± SEM” for short) (Mice (NMRI) [1]; [6]) was 23.5 ± 1.2 and the “Number … Mean ± SEM” value (Mice (NMRI) [1]; [7]) was 21.5 ± 1.2. For the same compound, the “Number of marbles covered by sawdust, %” value (Mice (NMRI) [1]; 0.1 mg/kg s.c. 30 minutes before the test, p<0.01) was −13%, the “Number of marbles covered by sawdust, %” value (Mice (NMRI) [1]; 0.1 mg/kg s.c. 30 minutes before the test, p<0.01, listed as nalmefene) was −13% and the “Number of marbles covered by sawdust, %” value (Mice (NMRI) [1]; [8]) was −10%. The “Number … Mean ± SEM” value (Mice (NMRI) [1]; [8]) was 22.4 ± 1.4, the “effect on number of marbles covered by sawdust” value (Mice (NMRI) [1]; 0.01 or 1 mg/kg s.c.) was “no significant effects” and the HDD [2, 9] was 6.0. It also gave a TAC [2, 9] of 20.8 g/day, an HDD ([2]; Baseline, N=22) of 16.0 and a TAC ([2]; Baseline, N=22) of 80.3 g/day. The alcohol consumption ([2]; patients with a mood disorder at baseline (MedDRA)) was “significally reduced the alcohol consumption”, the “difference between nalmefene and placebo in HDDs” value ([2]; patients with a mood disorder at baseline compared with patients without, week 24, FIG. 1) was “more pronounced” and the “difference between nalmefene and placebo in TAC” value ([2]; patients with a mood disorder at baseline compared with patients without, week 24, FIG. 2) was “more pronounced”. The “reducing TAC versus placebo” value ([2]; total patient group) was “superior to placebo”, the “reducing the number of HDDs versus placebo” value ([2]; total patient group) was “superior to placebo” and the “activity at the κ receptor” value (κ receptor) was “partial agonist activity”. The “activity at the μ receptor” value (μ receptor) was “antagonist activity”, the “duration of immobility during the 5 minute test” value (Rats (Wistar)) was “No significant effect” and the “activity at the δ receptor” value (δ receptor) was “antagonist activity”. For the same compound, the “POMS TMD score” value [3, 9] was 37, the “POMS TMD score” value ([3]; Baseline, N=22) was 68 and the “general mood state (POMS data overall)” value ([3]; patients with a mood disorder) was “general mood state improves”. The “POMS score at the end of the study versus placebo” value ([3]; patients with a mood disorder at baseline, FIGS. 3b-9b) was “better POMS score”, the “POMS scores versus placebo: total mood disturbance, tension-anxiety, depression-rejection, anger-hostility and confusion” value ([3]; patients with a mood disorder at baseline, weeks 16-24, FIGS. 3b, 4b, 5b, 6b, 9b) was “better POMS scores” and the “pattern in POMS score versus placebo” value ([3]; patients without a mood disorder at baseline, FIGS. 3a-9a) was “no pronounced difference between nalmefene and placebo”. For the same compound, the “Duration of immobility, % compared with vehicle” value (from here on “Duration of immobility, %”) (Mice (NMRI) [4]; [7]) was “+6%”, the “Duration of immobility, Mean ± SEM” value (Mice (NMRI) [4]; [7]) was 206 ± 7 s and the latency to immobility (Mice (NMRI) [4]; 1 mg/kg s.c. 30 minutes before the test, versus vehicle) was “did not significantly affect”. For the same compound, the “Duration of immobility, Mean ± SEM” value (Mice (NMRI) [4]; [8]) was 140 ± 22 s, the “Duration of immobility, %” value (Mice (NMRI) [4]; 1 mg/kg s.c. 30 minutes before the test, p<0.05) was −28% and the “Duration of immobility, %” value (Mice (NMRI) [4]; [10]) was −3%. The “Duration of immobility, Mean ± SEM” value (Mice (NMRI) [4]; [10]) was 189 ± 11 s and the “effect in forced swim test” value (Mice (NMRI) [4]; 0.1 or 10 mg/kg s.c.) was “no effects”.

For O=C1CCc2ccc(OCCCCN3CCN(c4cccc(Cl)c4Cl)CC3)cc2N1 [aripiprazole], the “efficacy on measures of alcohol use and dependence” value [5] is given as “ineffective”.

For OCCOCCN1CCN(C2=Nc3ccccc3Sc3ccccc32)CC1 [quetiapine], the “efficacy on measures of alcohol use and dependence” value [5] is given as “ineffective”.
